Here are results for 11 compounds from Sander's compilation of Henry's law constants (doi:10.1021/es00033a018).

Each structure is given as a SMILES string.

The series in a line: Henry solubility constant Hcp at 298.15 K (mol/(m3 Pa)). The following applies: reference: Wright et al. (1992).
In the case of `CC(Cl)CCl` (stereo unspecified) [1,2-dichloropropane], the “Henry solubility constant Hcp” value stood at 0.0036.
For `ClCC(Cl)Cl` [1,1,2-trichloroethane] the value was 0.011; for `ClCCl` [dichloromethane], 0.0039; for `ClCC(Cl)(Cl)Cl` [1,1,1,2-tetrachloroethane], 0.004.
For `BrC(Br)Br` [tribromomethane] the value was 0.024; for `ClC=CCCl` [1,3-dichloropropene], 0.0064; for `CC(Cl)(Cl)Cl` [1,1,1-trichloroethane], 0.0006.
For `BrCBr` [dibromomethane] the value was 0.011; for `ClC=C(Cl)Cl` [trichloroethene], 0.0011.
With `ClC(Cl)C(Cl)Cl` [1,1,2,2-tetrachloroethane], the “Henry solubility constant Hcp” value amounted to 0.022.
For the compound `ClC(Cl)(Cl)Cl` [tetrachloromethane], the “Henry solubility constant Hcp” value worked out at 0.00029.
